According to US11332438B2, “Creatine prodrugs, compositions and methods of use thereof” (Ultragenyx Pharmaceutical Inc., priority 2017, dated 2022):

Tests used:
[1] = Liver microsome stability, mouse; assay type: in vitro ADME; conditions: liver microsomes, read-out: Microsome Stability Mouse t1/2
Experimental: (§1) The stabilities of creatine prodrugs can be evaluated in one or more in vitro systems using a variety of preparations following methods known in the art. Experimental conditions useful for the in vitro studies are described in Table 1. Prodrug is added to each preparation in triplicate. […]
(§2) Protocol for Microsomal Stability:
(§3) For reference compound, a 500 μM spiking solution was prepared: add 10 μL of 10 mM DMSO stock solution into 190 μL ACN. […] For test compound, a 5 mM spiking solution was prepared: add 10 μL of 10 mM DMSO stock solution into 10 μL ACN. […] NADPH stock solution (6 mM) was prepared by dissolving NADPH into buffer 0.1 M Potassium Phosphate buffer, 1.0 mM EDTA, pH 7.4. […] For 0-min, 135 μL of ACN containing IS was added to the wells of 0-min plate and then 15 μL of NADPH stock solution (6 mM) was added. 15 μL of NADPH stock solution (6 mM) was added to the samples designated as 0-, 5-, 10-, 20-, 30-min, 60-min; 15 μL of buffer 0.1 M Potassium Phosphate buffer, 1.0 mM EDTA, pH 7.4, was added to the samples designated as 60-min without NADPH. At 5-min, 10-min, 20-min, and 30-min, 60-min 135 μL of ACN containing IS was added to the wells of corresponding plates, respectively, to stop the reaction. […] 50 μL of the supernatant from each well was transferred into a 96-well sample plate containing 50 μL of ultra pure water (Millipore, ZMQS50FOI) and analyzed by LC/MS.

[2] = Chemical stability in simulated gastric fluid (SGF) without pepsin; assay type: physicochemical; conditions: 50 μM prodrug
Experimental: (§4) Chemical stability of creatine prodrugs in phosphate buffered saline (PBS), simulated intestinal fluid (SIF) without pancreatin, simulated gastric fluid (SGF) without pepsin were determined by LC-UV, LC-CAD, LC-UV-CAD or LC-MS/MS as appropriate. Creatine prodrugs of the present disclosure (50 μM) were incubated at 37° C. according to described protocols and prodrug levels were compared between t=0, t=15, t=60, and t=120 mins by peak area ratio to determine the percentage remained at t=120 mins (2 h).
(§5) Protocol for PBS, SIF and SGF stability for screening:
(§6) Prodrugs (50 μM) were incubated in PBS, FaSSIF (Biorelevant) or FaSSGF (Biorelevant) at 37° C.

[3] = Plasma stability, human plasma; assay type: in vitro ADME; conditions: 37 °C, read-out: Plasma Stability Human t1/2
Experimental: as §1
(§7) Protocol for plasma stability for early screen macrocycles (Method A):
(§8) Frozen plasma was thawed by placing at 37° C. quickly and centrifuged at 3,000 rpm for 8 minutes to remove clots. Then the supernatant was pipetted and pooled as the plasma to be used in the experiment. The plasma was placed on ice until used. The test compounds and reference compounds spiking solution was prepared as a 2.5 mM test compounds spiking solution A: Add 20 μL of 10 mM test compounds stock solution to 60 μL DMSO. 0.1 mM Spiking solution B was prepared: Add 40 μL of spiking solution A to 960 μL of […] Sodium phosphate buffer with 0.5% BSA. […] For 0-min, 400 μL of ACN containing IS was added to the wells of 0-min plate and then 90 μL of plasma was added. […] 50 μL of the supernatant was transferred from each well into a 96-well sample plate containing 120 μL of ultra pure water (Millipore, ZMQS50F01) and analyzed by LC/MS.
(§9) Protocol for plasma stability (Method B):
(§10) The frozen plasma was thawed in a 37° C. water bath and then, if needed, adjusted to pH=7.4 then preheated in a 37° C. incubator. The test article was dissolved in 10% DMSO/water and spiked into plasma pre-plated into 96 well plates at a final concentration of 1 μM. Discrete incubations were performed at 37° C. and included 5 time points: t=0, 2, 5, 15, and 30 min. Samples were then crashed with 4× volume, ice cold 20% water/80% acetonitrile and spun at 4000 g for 10 mins. The supernatant was dried down and reconstituted with water and analyzed by LC-MS/MS. The half life in minute was calculated.

[4] = Chemical stability in phosphate buffered saline (PBS); assay type: physicochemical; conditions: 50 μM prodrug
Experimental: as §4, §5, §6

[5] = Liver microsome stability, human; assay type: in vitro ADME; conditions: liver microsomes, read-out: Microsome Stability Human t1/2
Experimental: as §1, §2, §3

[6] = Plasma stability, mouse plasma; assay type: in vitro ADME; conditions: 37 °C, read-out: Plasma Stability Mouse t1/2
Experimental: as §1, §7, §8, §9, §10

Structure (SMILES) | half-life at 10 μM ([1]; pH 7.4, Table 2A) | Chemical Stability SGF, no enzyme % T0 at 2 hours at 37 °C. ([2]; Table 2A) | half-life ([3]; Table 2A) | Chemical Stability PBS % T0 at 2 hours at 37 °C. ([4]; Table 2A) | half-life at 10 μM ([5]; pH 7.4, Table 2A) | half-life ([6]; Table 2A) | half-life at 10 μM ([1]; pH 7.4, Table 2B) | Chemical Stability SGF, no enzyme % T0 at 2 hours at 37 °C. ([2]; Table 2B) | Chemical Stability PBS % T0 at 2 hours at 37 °C. ([4]; Table 2B) | half-life at 10 μM ([5]; pH 7.4, Table 2B) | half-life ([3]; Table 2B) | half-life ([6]; Table 2B)
[2H]C([2H])([2H])N(CC(=O)[O-])C(=N)NC(=O)CCCCCCCCCC.[K+] [Compound 33] | 1.77 h | 79% | > 3 h | 85% | 1.2 h | > 3 h | – | – | – | – | – | –
[2H]C([2H])([2H])N(CC(=O)[O-])C(=N)NC(=O)CCCCCCCC.[Li+] [Compound 35] | > 2.42 h | 86% | > 3 h | 116% | 1.08 h | > 3 h | – | – | – | – | – | –
[2H]C([2H])([2H])N(CC(=O)[O-])C(=N)NC(=O)CCCCCCCC.[Na+] [Compound 36] | > 2.42 h | 99% | > 3 h | 106% | 1.7 h | > 3 h | – | – | – | – | – | –
[2H]C([2H])([2H])N(CC(=O)[O-])C(=N)NC(=O)CCCCCCC.[Na+] [Compound 38] | > 2.42 h | 99% | > 3 h | 101% | > 2.42 h | > 3 h | – | – | – | – | – | –
Cl.[2H]C([2H])([2H])N(CC(=O)OC(C)(C)C)C(=N)NC(=O)CCCCCCCCCC [Compound 44] | < 0.0833 h | 86% | 1.67 h | 42% | 0.15 h | 0.133 h | < 0.0833 h | 95% | 107% | 0.15 h | – | –
[2H]C([2H])([2H])N(CC(=O)OCC)/C(=N\C(=O)OC(C)(C)C)NC(=O)CCCCCCCCCC [Compound 47] | 0.0833 h | 32% | 2.82 h | 55% | 0.267 h | < 0.0833 h | – | – | – | – | – | –
[2H]C([2H])([2H])N1CC(=O)N=C1NC(=O)CCCCCCCCCC [Compound 49] | < 0.0833 h | 62% | > 3 h | 87% | 0.4 h | 0.783 h | – | – | – | – | – | –
[2H]C([2H])([2H])N(CC(=O)[O-])C(=N)NC(=O)CCCCCCCCCCCO.[Na+] [Compound 56] | – | – | – | – | – | – | > 1.5 h | 81% | 58% | > 1.5 h | > 3 h | > 3 h
[2H]C([2H])([2H])N(CC(=O)[O-])C(=N)NC(=O)CCCCCCCCCC(C)O.[Na+] (stereo not shown) [Compound 57] | – | – | – | – | – | – | > 1.5 h | 89% | 78% | > 1.5 h | > 3 h | > 3 h
